According to patent US11655235B2, “Pyrrolidine and piperidine compounds” (YUHAN CORPORATION, priority 2019, dated 2023):

Assays:
Assay type in all cases: biochemical
recombinant human DPP7 = molecular target: T1, recombinant human DPP7 (Homo sapiens, UniProt Q9UHL4); assay: DPP7 inhibition, fluorogenic substrate Lys-Pro-AMC; details: recombinant human DPP7
T1 construct: purchased R&D Systems
In short: (§1)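 Inhibitors are titrated in an 8-point series into the enzyme's assay buffer (DMSO no more than 0.5%). Substrate cleavage at 25 °C is followed by fluorescence, excitation 380 nm and emission 460 nm. IC50 values come from a four-variable logistic model.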

recombinant human DPP9 = molecular target: T2, recombinant human DPP9 (Homo sapiens, UniProt Q86TI2); assay: DPP9 inhibition, fluorogenic substrate H-Gly-Pro-AMC; details: recombinant human DPP9
T2 construct: purchased R&D Systems
T2 sequence (Q86TI2 whole entry): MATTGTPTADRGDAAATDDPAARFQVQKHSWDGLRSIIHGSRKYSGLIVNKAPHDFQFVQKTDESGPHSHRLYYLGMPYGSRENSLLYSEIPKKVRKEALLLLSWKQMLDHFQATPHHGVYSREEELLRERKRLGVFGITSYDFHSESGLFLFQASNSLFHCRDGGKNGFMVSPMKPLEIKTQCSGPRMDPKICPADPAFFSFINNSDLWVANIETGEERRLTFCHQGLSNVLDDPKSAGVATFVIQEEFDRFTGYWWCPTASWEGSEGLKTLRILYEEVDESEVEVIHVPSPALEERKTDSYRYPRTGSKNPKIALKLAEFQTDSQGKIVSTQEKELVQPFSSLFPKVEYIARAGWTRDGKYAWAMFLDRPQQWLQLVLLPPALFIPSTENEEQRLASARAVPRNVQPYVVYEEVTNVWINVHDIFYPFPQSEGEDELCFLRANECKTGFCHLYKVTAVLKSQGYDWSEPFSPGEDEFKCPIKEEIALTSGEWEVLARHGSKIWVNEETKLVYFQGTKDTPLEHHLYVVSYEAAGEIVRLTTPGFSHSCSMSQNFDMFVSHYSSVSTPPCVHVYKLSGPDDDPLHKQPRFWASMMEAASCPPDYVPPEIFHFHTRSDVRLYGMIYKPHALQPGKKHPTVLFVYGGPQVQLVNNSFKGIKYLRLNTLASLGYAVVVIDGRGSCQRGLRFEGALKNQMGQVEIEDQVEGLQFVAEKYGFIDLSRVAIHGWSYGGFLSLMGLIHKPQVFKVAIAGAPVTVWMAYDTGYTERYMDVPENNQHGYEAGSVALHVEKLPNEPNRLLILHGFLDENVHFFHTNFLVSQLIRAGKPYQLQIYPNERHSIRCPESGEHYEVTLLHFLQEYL
In short: as §1

Recombinant human FAP = molecular target: T3, Recombinant human FAP (Homo sapiens, UniProt Q12884); assay: FAP FRET assay, FGF21-sequence FRET peptide substrate; details: FRET peptide with human FGF21 sequence, 6 μM, 37° C.
T3 construct: purchased R&D systems
T3 sequence (Q12884 1-760): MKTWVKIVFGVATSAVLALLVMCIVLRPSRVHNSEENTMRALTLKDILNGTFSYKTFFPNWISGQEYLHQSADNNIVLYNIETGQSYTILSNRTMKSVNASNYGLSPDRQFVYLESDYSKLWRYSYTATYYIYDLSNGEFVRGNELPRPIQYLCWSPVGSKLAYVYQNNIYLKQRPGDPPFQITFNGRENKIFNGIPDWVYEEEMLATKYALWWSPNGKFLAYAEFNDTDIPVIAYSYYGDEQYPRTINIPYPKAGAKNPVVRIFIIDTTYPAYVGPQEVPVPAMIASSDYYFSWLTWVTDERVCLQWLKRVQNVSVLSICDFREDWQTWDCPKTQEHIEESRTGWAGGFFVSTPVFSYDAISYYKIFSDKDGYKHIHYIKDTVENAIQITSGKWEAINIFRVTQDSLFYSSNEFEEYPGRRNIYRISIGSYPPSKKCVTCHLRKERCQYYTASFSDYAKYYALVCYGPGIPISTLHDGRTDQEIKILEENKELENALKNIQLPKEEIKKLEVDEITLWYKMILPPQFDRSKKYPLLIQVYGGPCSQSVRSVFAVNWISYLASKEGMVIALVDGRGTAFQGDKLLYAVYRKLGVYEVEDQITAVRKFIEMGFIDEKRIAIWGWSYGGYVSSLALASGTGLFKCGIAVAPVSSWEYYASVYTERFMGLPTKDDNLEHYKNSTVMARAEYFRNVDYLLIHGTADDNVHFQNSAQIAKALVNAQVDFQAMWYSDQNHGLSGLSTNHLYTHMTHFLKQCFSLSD
In short: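 FRET peptide bearing human FGF21 sequence (6 μM final) cleaved by 10 ng recombinant human FAP at 37° C in HEPES pH 7.2 buffer with NaCl, BSA and EDTA, DMSO up to 0.1%. Signal-rate decrease versus uninhibited control fitted to a four-variable logistic model for IC50.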

| SMILES | IC50 (recombinant human DPP7) [nM] | IC50 (recombinant human DPP9) [nM] | IC50 (Recombinant human FAP) [nM] |
| --- | --- | --- | --- |
| N#Cc1cnc2cccc(N[C@H]3CCN(CC(=O)N4CCC[C@H]4C#N)C3)c2c1 [Example 232, 5-[[(3S)-1-[2-oxo-2-[(2S)-2-cyanopyrrolidin-1-yl]ethyl]pyrrolidin-3-yl]amino]quinoline-3-carbonitrile] | 7150 | 29000 | 1.8 |
| COc1cnc2cccc(N[C@H]3CCN(CC(=O)N4CCC[C@H]4C#N)C3)c2c1 [Example 233, (2S)-1-[2-[(3S)-3-[(3-methoxy-5-quinolyl)amino]pyrrolidin-1-yl]acetyl]pyrrolidine-2-carbonitrile] | 1070 | 21200 | 0.7 |
| N#C[C@@H]1CCCN1C(=O)CN1CC[C@H](Nc2ccc(F)c3ncccc23)C1 [Example 244, (2S)-1-[2-[(3S)-3-[(8-fluoro-5-quinolyl)amino]pyrrolidin-1-yl]acetyl]pyrrolidine-2-carbonitrile] | 9140 | 31900 | 5.6 |
| N#C[C@@H]1CCCN1C(=O)CN1CC[C@H](Nc2ccc(C(F)(F)F)c3ncccc23)C1 [Example 245, (2S)-1-[2-[(3S)-3-[[8-(trifluoromethyl)-5-quinolyl]amino]pyrrolidin-1-yl]acetyl]pyrrolidine-2-carbonitrile] | 3750 | > 100000 | 1.2 |
| N#Cc1ccc(N[C@H]2CCN(CC(=O)N3CCC[C@H]3C#N)C2)c2cccnc12 [Example 247, 5-[[(3S)-1-[2-oxo-2-[(2S)-2-cyanopyrrolidin-1-yl]ethyl]pyrrolidin-3-yl]amino]quinoline-8-carbonitrile] | > 50000 | > 100000 | 2 |
| N#C[C@@H]1C[C@H](F)CN1C(=O)CN1CC[C@H](Nc2cccc3ncc(F)cc23)C1 [Example 255, (2S,4S)-4-fluoro-1-[2-[(3S)-3-[(3-fluoro-5-quinolyl)amino]pyrrolidin-1-yl]acetyl]pyrrolidine-2-carbonitrile] | 1850 | 7360 | 1 |
| COc1cnc2cccc(NC3CCN(CC(=O)N4C[C@@H](F)C[C@H]4C#N)CC3)c2c1 [Example 348, (2S,4S)-4-fluoro-1-[2-[4-[(3-methoxy-5-quinolyl)amino]-1-piperidyl]acetyl]pyrrolidine-2-carbonitrile] | 612 | 6200 | 3.9 |
| N#C[C@@H]1C[C@H](F)CN1C(=O)CN1CCC(Nc2cccc3ncc(F)cc23)CC1 [Example 349, (2S,4S)-4-fluoro-1-[2-[4-[(3-fluoro-5-quinolyl)amino]-1-piperidyl]acetyl]pyrrolidine-2-carbonitrile] | 1990 | 5060 | 4 |
| N#C[C@@H]1C[C@H](F)CN1C(=O)CN1CCC(Nc2cccc3cnc(Cl)cc23)CC1 [Example 352, (2S,4S)-1-[2-[4-[(3-chloro-5-isoquinolyl)amino]-1-piperidyl]acetyl]-4-fluoro-pyrrolidine-2-carbonitrile] | 2930 | 9770 | 2.5 |
| COc1cc2c(NC3CCN(CC(=O)N4C[C@@H](F)C[C@H]4C#N)CC3)cccc2cn1 [Example 355, (2S,4S)-4-fluoro-1-[2-[4-[(3-methoxy-5-isoquinolyl)amino]-1-piperidyl]acetyl]pyrrolidine-2-carbonitrile] | 846 | 9860 | 2.5 |
| Cc1ccc2nccc(OC3CCN(CC(=O)N4C[C@@H](F)C[C@H]4C#N)CC3)c2c1 [Example 410, (2S,4S)-4-fluoro-1-[2-[4-[(6-methyl-4-quinolyl)oxy]-1-piperidyl]acetyl]pyrrolidine-2-carbonitrile] | 4730 | 17700 | 1.5 |

Continued, values first:

| IC50 (recombinant human DPP7) [nM] | IC50 (recombinant human DPP9) [nM] | IC50 (Recombinant human FAP) [nM] | SMILES |
| --- | --- | --- | --- |
| 387 | 7480 | 3 | N#C[C@@H]1C[C@H](F)CN1C(=O)CN1CC[C@H](Nc2cccc3ncccc23)C1 [Example 228, (2S,4S)-4-fluoro-1-[2-[(3S)-3-(5-quinolylamino)pyrrolidin-1-yl]acetyl]pyrrolidine-2-carbonitrile] |
| 554 | 3830 | 1.9 | COc1ccc(N[C@H]2CCN(CC(=O)N3C[C@@H](F)C[C@H]3C#N)C2)c2cccnc12 [Example 263, (2S,4S)-4-fluoro-1-[2-[(3S)-3-[(8-methoxy-5-quinolyl)amino]pyrrolidin-1-yl]acetyl]pyrrolidine-2-carbonitrile] |
| 1070 | 4380 | 1.2 | N#C[C@@H]1C[C@H](F)CN1C(=O)CN1CC[C@H](Nc2ccc(OC(F)(F)F)c3ncccc23)C1 [Example 266, (2S,4S)-4-fluoro-1-[2-[(3S)-3-[[8-(trifluoromethoxy)-5-quinolyl]amino]pyrrolidin-1-yl]acetyl]pyrrolidine-2-carbonitrile] |
| 511 | 877 | 0.7 | N#C[C@@H]1C[C@H](F)CN1C(=O)CN1CC[C@H](Nc2ccc(OCc3ccccc3)c3ncccc23)C1 [Example 268, (2S,4S)-4-fluoro-1-[2-[(3S)-3-[(8-benzyloxy-5-quinolyl)amino]pyrrolidin-1-yl]acetyl]pyrrolidine-2-carbonitrile] |
| 404 | 1090 | 2.6 | N#C[C@@H]1C[C@H](F)CN1C(=O)CN1CCC(Nc2ccc(C(F)(F)F)c3ncccc23)CC1 [Example 334, (2S,4S)-4-fluoro-1-[2-[4-[[8-(trifluoromethyl)-5-quinolyl]amino]-1-piperidyl]acetyl]pyrrolidine-2-carbonitrile] |
| 1010 | 2960 | 5.7 | N#C[C@@H]1C[C@H](F)CN1C(=O)CN1CCC(Nc2ccc(OC(F)(F)F)c3ncccc23)CC1 [Example 347, (2S,4S)-4-fluoro-1-[2-[4-[[8-(trifluoromethoxy)-5-quinolyl]amino]-1-piperidyl]acetyl]pyrrolidine-2-carbonitrile] |
